Key:
[1] = tested on: CUS rats; experiment: Sucrose preference test in CUS rats; type: in vivo; conditions: chronic, 5, 10, 20, and 40 mg/kg, vs. CUS‐vehicle
Procedure: (§1) In order to further examine the antidepressant effects of GW117, chronic unpredictable stress (CUS) model was utilized; the methods were as described before. ^29 , ^31 After 1 week of training, rats underwent sucrose training of 48 h. After training, a sucrose baseline test was performed. […] Gastric gavage was given 1 h before the stress (08:00–09:00). Except for the non‐stressed group, all rats were stimulated by a series of stressors. stress methods included the following: fast on food and water (24 h), moisture cage (150 g sawdust bedding in 200 ml water), overnight illumination, low‐intensity strobe illumination (100 flashes/min), forced swimming (5 min at 10℃), white noise (110 dB), tail pinch (1 cm from tail root, 6 min), 45℃ cage tilt, and restraint (1–2 h). Stressors need to be used continuously and randomly. Non‐stressed rats received free food and water, but were required to fast for 14 h before sucrose preference test. After 4 weeks of stress, the sucrose preference test (SPT) (on day 25), open field test (OFT) (on day 28), and novelty‐suppressed feeding (NSF) test (on day 29) were carried out.
The SPT was performed as previously reported. ^32 Rats were trained to administer sucrose water solution after 48 h fasting and water deprivation. […] Sucrose and water intake were measured, and sucrose preference was calculated: SP =sucrose intake ×100%/ (sucrose intake +water intake). […]

[2] = target: T1, MT2 receptor (Homo sapiens, UniProt P49286); experiment: [35S]‐GTPγS binding assay, MT2; type: biochemical
T1 construct: purchased Perkin‐Elmer ES‐621
T1 sequence (P49286 1-362): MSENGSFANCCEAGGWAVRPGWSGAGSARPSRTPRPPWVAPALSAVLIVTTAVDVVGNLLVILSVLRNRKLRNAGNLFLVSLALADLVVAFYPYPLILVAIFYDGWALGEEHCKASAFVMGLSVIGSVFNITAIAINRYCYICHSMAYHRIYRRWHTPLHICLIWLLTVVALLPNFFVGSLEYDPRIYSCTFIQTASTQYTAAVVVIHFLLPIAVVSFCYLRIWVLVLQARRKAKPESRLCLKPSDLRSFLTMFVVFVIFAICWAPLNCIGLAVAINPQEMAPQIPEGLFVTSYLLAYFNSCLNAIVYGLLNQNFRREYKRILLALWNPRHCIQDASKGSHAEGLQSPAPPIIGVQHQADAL
Procedure: This experiment was mentioned earlier. ^27 In short, HEK293 cell membrane stably expressing human 5‐HT2C receptors or rat hippocampal tissue membrane or MT1/MT2 receptors was re‐suspended in buffer (50 mmol/L Tris, 100 mmol/L NaCl, 5 mmol/L MgCl2·6H2O, 0.1 mmol/L EDTA‐Na2·6H2O, 0.2 mmol/L EGTA, pH 7.4) and incubated with the test compound (100 μM GDP, 0.2 nM [^35S]‐GTP, or [^3H]PIP) for 60 min at 28℃. At the end of the experiment, Whatman GF/C filters pre‐soaked with distilled water were used for rapid filtration followed by washing with 5 ml of ice‐cold Tris buffer. Determination of non‐specific binding in the presence of GTPγS and radioactivity was measured by liquid scintillation counting. Calculation of the concentration produces a half‐maximal effect (EC50) and the maximal increase above the baseline value.

[3] = tested on: rats; experiment: Forced swimming test in rats; type: in vivo, Sprague Dawley (SD) rats; conditions: single dose p.o., 10, 20, or 40 mg/kg, vs. vehicle
Procedure: The forced swimming test (FST) was conducted as described earlier. ^30 Eighty naive rats were randomized into eight treatment groups (n = 9‐12/group). All rats received a single drug administration (p.o.). The procedure consisted of two sessions, to be specific, a pre‐test session and a test session. A cylindrical container (diameter, 20 cm; height, 40 cm; including 30 cm of water and kept at 25℃) was used. During the pre‐test phase, rats were required to perform forced swimming for 15 min. The test session was performed 24 h later, put the rats in the same cylindrical container for 5 min and immobility duration over 5 min recorded. […] Rats were considered immobile when they entered a floating posture, specifically, immobile, passive, and with their heads above water.

[4] = tested on: CUS rats; experiment: Open field test in chronic unpredictable stress (CUS) rats; type: in vivo; conditions: CUS rats, 5, 10, 20, 40 mg/kg p.o., 4‐week stress, vs. CUS‐vehicle
Procedure: as §1
The OFT device was a chamber (diameter, 122 cm; height, 45 cm) that was grouped equally into 16 sections. 24 h after the last administration, rats were put into the center of the chamber and the numbers of crossings and readings were recorded in 5 min.

[5] = tested on: CUS rats; experiment: Novelty‐suppressed feeding test in the CUS model; type: in vivo; conditions: chronic, 5, 10, 20 and 40 mg/kg, vs. vehicle‐stressed rats
Procedure: as §1, with “out. […]” for “out.”

[6] = previous study; cited from earlier work

character of effect on MT2 receptor ([2]; [35S]‐GTPγS binding): full agonist
Emax ([2]; [35S]‐GTPγS binding, read-out: maximal increase over basal binding (% Emax), MT2 receptor): 103 ± 4.56%
EC50 ([2]; read-out: EC50 of stimulation of specific [35S]‐GTPγS binding, MT2 receptor): 1.54 nM
Compound: [2H]C([2H])([2H])Oc1cc2c(CCNC(C)=O)cccc2cc1Cl [GW117]
sucrose preference [1]: markedly increased sucrose preference
immobility time in FST [3]: markedly reduced the immobility time
number of rearings and crossings in open field [4]: markedly add to the number of rearings and crossings
latency to begin eating [5]: significantly reduced the latency to begin eating
toxic effects compared with agomelatine [6]: lower toxic effects
